The subject of one experiment is Shay ulcer. The experiment in a line: Inhibitory activity on Shay ulcer (pylorus ligation). The format is in vivo, SD-strain male rats. Conditions: 300 mg/kg i.p. Here is the method: Seven week-old SD-strain male rats (body weight 200 to 220 g) were fasted for 24 hours but water was provided freely, and then used in the experiment.
The rats were anesthetized with ether. The abdomen was cut open along the median line to expose the pylorus. Then, the pylorus was ligated. After the ligation, each of the test compounds, dissolved in physiological saline, was administered intraperitoneally to the rats. The abdomen was sutured. After confirming that the animals recovered from ether anesthesia, they were kept in a wire cage while being deprived of food and water. Seventeen hours later, the animals were killed by using ether. The abdomen was again cut open, and the stomach was removed. The stomach was cut open, and the area of ulcers generated in the fundus was measured by using a solid microscope, and scored as tabulated below to obtain ulcer indices. […]
(§1) The control group was given physiological saline alone.
For the measurement of the Shay ulcer inhibiting activity, reference may be made to H. Shay, S. A. Komoroe, S. S. Fels, M. Meraze, M. Gruestein, and H. Siplet: Gastroent., 5, 43 (1945).

A further experiment has as its system gastric secretion. The experiment can be described thus: Inhibitory activity on gastric secretion (pylorus ligation). Conditions: for Amount of gastric juice: 4 hours after pylorus ligation, control 6.8 ± 0.6, in ml (unit assumed); for Acidity: control 109.1 ± 1.7. The format is in vivo, male rats. Here is the method:
Seven week-old DS-strain male rats (body weight 200 to 220 g) were fasted for 24 hours but water was provided freely, and then used in the following experiment.
The rats were anesthetized with ether. The abdomen was cut open along the median line to expose the pylorus. Then, the pylorus was ligated. After ligation, each of the test compounds dissolved in physiological saline was intraperitoneally administered to the animals. The abdomen was sutured, and after confirming that the animals recovered from ether anesthesia, they were kept in a wire cage while being deprived of food and water. Four hours later, the animals were killed by using ether. The abdomen was again cut open, and the stomach was removed. The gastric juice was collected, and its volume and acidity was measured. The acidity of the gastric juice was determined by titrating with 0.05 N sodium hydroxide using phenolphthalein as an indicator, and calculating the amount of sodium hydroxide required to neutralize the gastric juice which is estimated as the acidity of the gastric juice.
as §1
For the method of studying the inhibitory activity on the gastiic secretion, reference may be made to H. Shay, S. A. Komoroe, S. S. Fels, M. Meraze, M. Gruestein and H. Siplet: Gastroent., 5, 43 (1945), and M. L. Anson: J. Gen, Physiol., 21, 79 (1938).

The test system of a further experiment is serotonin ulcer. The experiment in a line: Inhibitory activity on serotonin ulcer. In kind it is in vivo, SD-strain male rats. The following applies: 30 min before serotonin 20 mg/kg s.c., rats. Here is the method:
Seven week-old SD-strain male rats (body weight 200 to 220 g) were fasted for 24 hours but water was provided freely, and then used in the following experiment. Each of the test compounds suspended in 0.5% CMC was administered to the rats either orally or intraperitoneally, and 30 minutes later, serotonin (serotonin creatinine sulfate) was subcutaneously administered to the rats in a dose of 20 mg/kg. Four hours later, the animals were sacrificed. The abdomen was cut open, and the stomach was taken out from each animal. 12 ml of 1% formalin was injected into the stomach to inflate it, and the stomach was further dipped for about 10 minutes in 1% formalin for fixation. Then, the stomach was cut open on the side of the lesser curvature, and spread on a glass plate. The area of ulcers generated in the glandular stomach was measured by using a solid microscope. The sum of the area of ulcer for each animal was used as the ulcer index. The ulcer inhibiting ratio of the test compound was calculated in accordance with the following equation. [formula] The control group was given 0.5% CMC and serotonin alone.

For the next experiment, the target named is T1, plasmin (Homo sapiens, UniProt P00747).
T1 construct: fibrin clot lysis, native
T1 sequence (P00747 97-810): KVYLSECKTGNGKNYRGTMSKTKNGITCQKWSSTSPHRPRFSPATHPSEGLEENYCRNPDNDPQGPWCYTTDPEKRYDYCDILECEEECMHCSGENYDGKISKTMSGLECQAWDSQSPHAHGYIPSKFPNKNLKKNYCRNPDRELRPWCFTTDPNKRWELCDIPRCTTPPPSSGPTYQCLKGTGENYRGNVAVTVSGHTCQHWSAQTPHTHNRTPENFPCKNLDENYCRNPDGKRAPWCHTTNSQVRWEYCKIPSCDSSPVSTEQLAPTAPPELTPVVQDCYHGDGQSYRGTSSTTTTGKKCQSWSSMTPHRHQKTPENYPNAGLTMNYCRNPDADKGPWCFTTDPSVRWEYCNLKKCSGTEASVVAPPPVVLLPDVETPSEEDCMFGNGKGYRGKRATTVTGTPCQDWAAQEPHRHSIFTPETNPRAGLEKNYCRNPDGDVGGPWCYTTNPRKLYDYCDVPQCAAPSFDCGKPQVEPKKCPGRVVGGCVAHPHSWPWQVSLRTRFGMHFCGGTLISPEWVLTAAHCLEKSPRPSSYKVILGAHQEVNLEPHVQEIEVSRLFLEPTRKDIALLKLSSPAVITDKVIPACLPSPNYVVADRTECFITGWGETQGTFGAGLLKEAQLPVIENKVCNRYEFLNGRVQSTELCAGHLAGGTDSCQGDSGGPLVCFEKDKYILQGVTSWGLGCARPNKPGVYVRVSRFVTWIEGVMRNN
The experiment can be described thus: Antiplasmin activity (clot lysis time, fibrinogen/urokinase/thrombin). In kind it is biochemical. Conditions: first series, control 391.7 ± 16.1. Here is the method:
Human fibrinogen was dissolved in a phosphate-buffered physiological saline (PBS) at a pH of 7.4 to prepare a 0.2% solution. Urokinase and thrombin were dissolved similarly in PBS to prepare a solution containing 120 units of urokinase and 50 units of thrombin per ml. […] Then, 0.1 ml of the urokinase-thrombin mixed solution was added, and a microchronometer was started. One minute after the starting of the microchronometer, a glass ball having a diameter of 8 mm was put on the coagulated surface, and the incubation was continued. The time which elapsed from the dissolution of the coagulated mass until the glass ball dropped onto the bottom of the test tube was measured. As a control, PBS alone was added.

Experiment [1] concerns blood flow in the gastric mucosa. The experiment can be described thus: Increasing activity on the blood flow in the dog gastric mucosa. The format is in vivo, Male Beagle dogs. The following applies: anesthetized dogs, cross thermocouple method. Here is the method: Male Beagle dogs (10 to 15 kg) were anesthetized by intravenously administering sodium pentobarbital in a dose of 35 mg/kg, and used in the following experiment.
The blood flow in the gastric mucosa was measured by a cross thermocouple method. The abdomen was cut open along the median line to expose the stomach. A wire-type cross thermocouple element was inserted behind the mucosa on the glandular stomach. The blood flow measured by the cross thermocouple element was recorded continuously in a recorder. For the method of measuring the blood flow, reference may be made to a Japanese-language publication "Blood Flow Measurement", page 105, 1974 Igakushoin, edited by Okinaka, Hori and Honda.

The test system of the next experiment is indomethacin ulcer. The experiment in a line: Inhibitory activity on indomethacin ulcer. The format is in vivo, SD-strain male rats. Conditions: 200 mg/kg oral, 30 min before indomethacin 20 mg/kg oral, rats. On the procedure:
Seven week-old SD-strain male rats (body weight 200 to 220 g) were fasted for 24 hours but water was provided freely, and then used in the following experiment.
Each of the test compounds suspended in 0.5% CMC was orally administered to the rats, and 30 minutes later, indomethacin was orally administered in a dose of 20 mg/kg. Six hours later, the animals were sacrificed. The abdomen was cut open, and the stomach was removed. 1% Evan's blue was injected in an amount of 0.5 ml/rat into the rats through the tail vein under ether anesthesia 10 minutes before sacrificing.
12 ml of a 1% formalin was injected into the stomach and the stomach was further dipped in 1% formalin for about 10 minutes for the fixation. The stomach was cut open on the side of the greater curvature, and spread on a glass plate. The lengths of ulcers generated in the glandular stomach were measured by using a solid microscope. The sum of the lengths of the ulcers for each animal was used as the ulcer index. The ulcer inhibiting ratio of the test compound was calculated in accordance with the following equation. [formula]
The control group was given 0.5% CMC and indomethacin alone.

Each structure is given as a SMILES string. Where a name gives a salt, the structure may show the parent alone.

Regarding `NC[C@H]1CC[C@H](C(=O)c2ccc(CCC(=O)O)cc2)CC1` [3-[p-trans-4-aminomethylcyclohexylcarbonyl)phenyl]-propionic acid hydrochloride], the Inhibition ratio with Shay ulcer (Shay ulcer, rats) came out at 43.5%. Moreover, the Ratio of perforation with Shay ulcer (Shay ulcer, rats, control 80) amounted to 20%. Also, in the experiment with Shay ulcer (score 0-5 by ulcer area, 17 hours after pylorus ligation, control 4.6 ± 0.4), the Ulcer index is 2.6 ± 0.8. Moreover, the “Inhibition ratio (acidity)” value with gastric secretion (50 mg/kg i.p.) turned out to be 17.5%; in the experiment on gastric secretion (100 mg/kg i.p.), 31.8%; in the experiment with gastric secretion (200 mg/kg i.p.) it was 70.1%. Besides, the “Inhibition ratio (amount of gastric juice)” value in the experiment with gastric secretion (50 mg/kg i.p.) was 41.7%; in the experiment with gastric secretion (100 mg/kg i.p.) it was 54.4%; in the experiment on gastric secretion (200 mg/kg i.p.), 89.4%. The “Amount of gastric juice” value was found to be 4.8 ± 0.8 in the experiment on gastric secretion (50 mg/kg i.p.), 3.1 ± 0.7 in the experiment on gastric secretion (100 mg/kg i.p.) and 0.7 ± 0.1 with gastric secretion (200 mg/kg i.p.). Besides, the Acidity in the experiment with gastric secretion (50 mg/kg i.p.) is given as 90.0 ± 4.5 μeq./ml; in the experiment on gastric secretion (100 mg/kg i.p.) it was 74.1 ± 6.1 μeq./ml; in the experiment on gastric secretion (200 mg/kg i.p.) it was 32.6 ± 2.6 μeq./ml. The Ulcer inhibiting ratio in the experiment on serotonin ulcer (30 mg/kg oral) was 34.0%; in the experiment with serotonin ulcer (100 mg/kg oral), 76.7%; in the experiment with indomethacin ulcer, 62.2%. Besides, the values for the Clot lysis time at plasmin (10^-3 M), on plasmin (10^-4 M) and at plasmin (10^-5 M) were 980.0 s, 561.2 s and 413.9 s, respectively. The “Increase in the gastric mucosal blood flow” value in experiment [1] (2 mg/kg i.v.) is recorded as “weak increase”; in experiment [1] (5 mg/kg i.v.) it was “remarkable”.

These data come from US4402975A, “Aminocarboxylic acids, amino alcohols, or the derivatives thereof, processes for production thereof, and pharmaceutical uses thereof” (Teijin Limited, priority 1980, dated 1983).
